# In patent US11524962B2, “Substituted pyrrolo[2,3-d]pyrimidines as inhibitors of protein arginine methyl transferase 5 (PRMT5)” (PRELUDE THERAPEUTICS, INCORPORATED, priority 2017, dated 2022):
# Where two headings read alike, the source gives them in different places.
# Test system: Granta-519 cells
# Assay: Cell proliferation assay in Granta-519 cells
# Assay type: cell-based
# Conditions: Homo sapiens
# Procedure: Granta-519 cells were maintained in PRMI 1640 (Corning Cellgro, Catalog #: 10-040-CV) medium supplemented with 10% v/v FBS (GE Healthcare, Catalog #: SH30910.03). Compounds were dissolved in DMSO to make 10 mM stocks and stored at −20° C. Nine-point, 3-fold serial dilutions were made with DMSO with top concentration at 1 mM (working stocks).
# On day of experiment, compound working stocks were further diluted at 1:50 with fresh medium in 96 well plate, and 10 μL of diluted drugs were added to a new 96 well plate for proliferation assay. Cells growing at exponential phase were spun down at 1500 rpm for 4 min and resuspend in fresh medium to reach a density of 0.5×10^6 cells/ml. 200 ul of cells were added to 96 well plate containing diluted drugs and incubated for 3 days. DMSO was used a vehicle control.
# On day 3, 10 μL of Cell Counting Kit-8 (CCK-8, Jojindo, CK04-13) solution was added to a new 96 well plate. Cells incubated with drugs for 3 days were resuspended by pipetting up and down, and 100 μL of cells were transferred to 96 well plate containing CCK-8 reagent to measure viable cells. Plates were incubated in CO2 incubator for 2 hours and OD450 values were measured with a microplate reader (iMark microplate reader, Bio-Rad).
# For re-plating, compound working stocks were diluted at 1:50 with fresh medium and 10 μL of diluted drugs were added to a new 96 well plate. Cells from Day 3 plate (50 ul) were added to 96 well plate containing fresh drug and additional 150 μL of fresh medium was added to reach 200 μL volume. Plate was returned to CO2 incubator and incubated for 3 more days. Viable cells measurement and re-plating were repeated on day 6, and the final viable cells measurement was taken on day 10.
# Percentage of viable cells, relative to DMSO vehicle control, were calculated and plotted in Graphpad Prism ([Inhibitor]vs. normalized response−Variable slope) to determine proliferation IC50 values on day 10.
# One day before experiment, Granta-519 cells were passaged to a density of 0.5×10^6 cells/ml. U-87 MG cells were trypsinized and 2,000 cells were seeded into 96-well plates and allow to grow overnight. On the day of experiment (day 0), Granta-519 Cells were spun down at 1,500 rpm for 4 min, resuspended in fresh medium to 0.5×10^6 cells/ml and 190 ul of cells were added to 96 well plates. For U-87 MG cells, old medium was removed and replaced with 190 uL fresh medium. Compound working stocks were first diluted at 1:50 with fresh medium in 96 well plate and 10 μL of diluted drugs were added to 96 well plates containing cells and incubated for 3 days. DMSO was used a vehicle control.
# One day 3, 50 uL of Granta-519 cells were transferred to a new 96-well plate and 140 uL fresh medium was added. For U-87 MG cells, old medium was removed and replaced with 190 uL fresh medium. Compound working stocks were freshly diluted at 1:50 with medium and 10 μL of diluted drugs were added to cells and grow for 3 additional days. The same process was repeated on day 6. Cells were allowed to grow for additional 4 days.
# On day 10, 100 uL Granta-519 cells were transferred to a new 96 well plate and 10 μL of Cell Counting Kit-8 (CCK-8, Jojindo, CK04-13) solution was added. For U-87 MG cells, old medium was removed and replaced with 100 uL fresh medium and 10 uL CCK-8 solution was added. Plates were incubated in CO2 incubator for 2 hours (Granta-519 cells) or 30 min (U-87 MG cells) and OD450 values were measured with a microplate reader (iMark microplate reader, Bio-Rad). Percentage of viable cells, relative to DMSO vehicle control, were calculated and plotted in Graphpad Prism ([Inhibitor]vs. normalized response−Variable slope) to determine proliferation IC50 values on day 10.
# These cell proliferation procedures produced the data in Table 7.
# [1] = 240 h, Granta-519, day 10, read-out: Prolif_Granta IC50
Compound,IC50 [1] [nM],"IC50 (Granta-519, initial testing, read-out: Prolif_(Granta) IC50) [nM]"
"C[C@@](O)(c1ccc2c(c1)CC2)[C@H]1O[C@@H](n2ccc3c(N)ncnc32)[C@H](O)[C@@H]1O [Example 1, (2R,3R,4S,5S)-2-(4-amino-7H-pyrrolo[2,3-d]pyrimidin-7-yl)-5-((R)-1-(bicyclo[4.2.0]octa-1(6),2,4-trien-3-yl)-1-hydroxyethyl)tetrahydrofuran-3,4-diol]",38,28
"Nc1ncnc2c1ccn2[C@@H]1O[C@H]([C@H](O)c2ccc3c(c2)CC3)[C@@H](O)[C@H]1O [Example 2, (2R,3R,4S,5R)-2-(4-amino-7H-pyrrolo[2,3-d]pyrimidin-7-yl)-5-((R)-bicyclo[4.2.0]octa-1(6),2,4-trien-3-yl(hydroxy)methyl)tetrahydrofuran-3,4-diol]",35,–
"Nc1ncnc2c1c(F)cn2[C@@H]1O[C@H]([C@H](O)c2ccc3c(c2)CC3)[C@@H](O)[C@H]1O [Example 6, (2R,3R,4S,5R)-2-(4-amino-5-fluoro-7H-pyrrolo[2,3-d]pyrimidin-7-yl)-5-((R)-bicyclo[4.2.0]octa-1(6),2,4-trien-3-yl(hydroxy)methyl)tetrahydrofuran-3,4-diol]",67,–
"Cc1ncnc2c1ccn2[C@@H]1O[C@H]([C@H](O)c2ccc3c(c2)CC3)[C@@H](O)[C@H]1O [Example 11, (2R,3S,4R,5R)-2-((R)-bicyclo[4.2.0]octa-1(6),2,4-trien-3-yl(hydroxy)methyl)-5-(4-methyl-7H-pyrrolo[2,3-d]pyrimidin-7-yl)tetrahydrofuran-3,4-diol]",92,–
"Nc1ncnc2c1c(Br)cn2[C@@H]1O[C@H]([C@H](O)c2ccc3c(c2)CC3)[C@@H](O)[C@H]1O [Example 36, (2R,3R,4S,5R)-2-(4-amino-5-bromo-7H-pyrrolo[2,3-d]pyrimidin-7-yl)-5-((R)-bicyclo[4.2.0]octa-1,3,5-trien-3-yl(hydroxy)methyl)tetrahydrofuran-3,4-diol]",1100,–
"Cc1ncnc2c1ccn2[C@@H]1O[C@H]([C@H](O)c2nc3c(s2)CCC3)[C@@H](O)[C@H]1O [Example 52, (2S,3S,4R,5R)-2-((S)-(5,6-dihydro-4H-cyclopenta[d]thiazol-2-yl)(hydroxy)methyl)-5-(4-methyl-7H-pyrrolo[2,3-d]pyrimidin-7-yl)tetrahydrofuran-3,4-diol]",396,–
"OCCc1ncnc2c1ccn2[C@@H]1O[C@H]([C@H](O)c2ccc3c(c2)CC3)[C@@H](O)[C@H]1O [Example 53, (2R,3S,4R,5R)-2-((R)-bicyclo[4.2.0]octa-1,3,5-trien-3-yl(hydroxy)methyl)-5-(4-(2-hydroxyethyl)-7H-pyrrolo[2,3-d]pyrimidin-7-yl)tetrahydrofuran-3,4-diol]",10000,–
"CNc1ncnc2c1ccn2[C@@H]1O[C@H]([C@H](O)c2ccc3c(c2)CC3)[C@@H](O)[C@H]1O [Example 54, (2R,3S,4R,5R)-2-((R)-bicyclo[4.2.0]octa-1(6),2,4-trien-3-yl(hydroxy)methyl)-5-(4-(methylamino)-7H-pyrrolo[2,3-d]pyrimidin-7-yl)tetrahydrofuran-3,4-diol]",1010,–
"O[C@@H]1[C@H](O)[C@@H]([C@H](O)c2ccc3c(c2)CC3)O[C@H]1n1ccc2c(Cl)ncnc21 [Example 56, (2R,3S,4R,5R)-2-((R)-bicyclo[4.2.0]octa-1(6),2,4-trien-3-yl(hydroxy)methyl)-5-(4-chloro-7H-pyrrolo[2,3-d]pyrimidin-7-yl)tetrahydrofuran-3,4-diol]",50000,–
